{"source": "ChEMBL document CHEMBL3421558", "about": "“Structure activity relationship of substituted 1,5-naphthyridine analogs of oxabicyclooctane-linked novel bacterial topoisomerase inhibitors as broad-spectrum antibacterial agents (Part-4)” (Bioorg Med Chem Lett, 2015)", "data": [{"tested_on": "Pseudomonas aeruginosa", "assay": "Antimicrobial activity against Pseudomonas aeruginosa PAO1 by micro broth dilution or agar based method", "format": "functional", "conditions": "Pseudomonas aeruginosa, PAO1; read-out: MIC", "units": {"MIC": "µg/mL"}, "values": [{"smiles": "COc1cc2nccc(CCC34CCC(NCc5ccc6c(n5)NC(=O)CO6)(CC3)CO4)c2nc1C#N", "MIC": 32}, {"smiles": "COc1ccc2ncc(S(C)(=O)=O)c(CCC34CCC(NCc5ccc6c(n5)NC(=O)CO6)(CC3)CO4)c2n1", "MIC": 32}, {"smiles": "COc1ccc2ncc(C(F)F)c(CCC34CCC(NCc5ccc6c(n5)NC(=O)CO6)(CC3)CO4)c2n1", "MIC": 16}, {"smiles": "COc1ccc2ncc(CO)c(CCC34CCC(NCc5ccc6c(n5)NC(=O)CO6)(CC3)CO4)c2n1", "MIC": 32}, {"smiles": "CN(C)c1nc2c(CCC34CCC(NCc5ccc6c(n5)NC(=O)CO6)(CC3)CO4)ccnc2cc1C(F)(F)F", "MIC": 8}, {"smiles": "COc1ccc2ncc(C)c(CCC34CCC(NCc5ccc6c(n5)NC(=O)CO6)(CC3)CO4)c2n1", "MIC": 16}, {"smiles": "COc1ccc2ncc(C(F)(F)F)c(CCC34CCC(NCc5ccc6c(n5)NC(=O)CO6)(CC3)CO4)c2n1", "MIC": 32}, {"smiles": "COc1ccc2ncc(C(N)=O)c(CCC34CCC(NCc5ccc6c(n5)NC(=O)CO6)(CC3)CO4)c2n1", "MIC": 32}]}, {"tested_on": "Acinetobacter baumannii", "assay": "Antimicrobial activity against Acinetobacter baumannii IID876 by micro broth dilution or agar based method", "format": "functional", "conditions": "Acinetobacter baumannii, IID876; read-out: MIC", "units": {"MIC": "µg/mL"}, "values": [{"smiles": "COc1cc2nccc(CCC34CCC(NCc5ccc6c(n5)NC(=O)CO6)(CC3)CO4)c2nc1C#N", "MIC": 32}, {"smiles": "COc1ccc2ncc(S(C)(=O)=O)c(CCC34CCC(NCc5ccc6c(n5)NC(=O)CO6)(CC3)CO4)c2n1", "MIC": 8}, {"smiles": "COc1ccc2ncc(C(F)F)c(CCC34CCC(NCc5ccc6c(n5)NC(=O)CO6)(CC3)CO4)c2n1", "MIC": 2}, {"smiles": "COc1ccc2ncc(CO)c(CCC34CCC(NCc5ccc6c(n5)NC(=O)CO6)(CC3)CO4)c2n1", "MIC": 8}, {"smiles": "CN(C)c1nc2c(CCC34CCC(NCc5ccc6c(n5)NC(=O)CO6)(CC3)CO4)ccnc2cc1C(F)(F)F", "MIC": 8}, {"smiles": "COc1ccc2ncc(C)c(CCC34CCC(NCc5ccc6c(n5)NC(=O)CO6)(CC3)CO4)c2n1", "MIC": 2}, {"smiles": "COc1ccc2ncc(C(F)(F)F)c(CCC34CCC(NCc5ccc6c(n5)NC(=O)CO6)(CC3)CO4)c2n1", "MIC": 2}, {"smiles": "COc1ccc2ncc(C(N)=O)c(CCC34CCC(NCc5ccc6c(n5)NC(=O)CO6)(CC3)CO4)c2n1", "MIC": 32}]}, {"tested_on": "Streptococcus pneumoniae", "assay": "Antimicrobial activity against Streptococcus pneumoniae IID553 by micro broth dilution or agar based method", "format": "functional", "conditions": "Streptococcus pneumoniae, IID553; read-out: MIC", "units": {"MIC": "µg/mL"}, "values": [{"smiles": "COc1cc2nccc(CCC34CCC(NCc5ccc6c(n5)NC(=O)CO6)(CC3)CO4)c2nc1C#N", "MIC": 32}, {"smiles": "COc1ccc2ncc(S(C)(=O)=O)c(CCC34CCC(NCc5ccc6c(n5)NC(=O)CO6)(CC3)CO4)c2n1", "MIC": 0.5}, {"smiles": "COc1ccc2ncc(C(F)F)c(CCC34CCC(NCc5ccc6c(n5)NC(=O)CO6)(CC3)CO4)c2n1", "MIC": 0.12}, {"smiles": "COc1ccc2ncc(CO)c(CCC34CCC(NCc5ccc6c(n5)NC(=O)CO6)(CC3)CO4)c2n1", "MIC": 0.5}, {"smiles": "CN(C)c1nc2c(CCC34CCC(NCc5ccc6c(n5)NC(=O)CO6)(CC3)CO4)ccnc2cc1C(F)(F)F", "MIC": 8}, {"smiles": "COc1ccc2ncc(C)c(CCC34CCC(NCc5ccc6c(n5)NC(=O)CO6)(CC3)CO4)c2n1", "MIC": 0.06}, {"smiles": "COc1ccc2ncc(C(F)(F)F)c(CCC34CCC(NCc5ccc6c(n5)NC(=O)CO6)(CC3)CO4)c2n1", "MIC": 0.25}, {"smiles": "COc1ccc2ncc(C(N)=O)c(CCC34CCC(NCc5ccc6c(n5)NC(=O)CO6)(CC3)CO4)c2n1", "MIC": 2}]}, {"tested_on": "Staphylococcus aureus", "assay": "Antimicrobial activity against methicillin-resistant Staphylococcus aureus OIT971 by micro broth dilution or agar based method", "format": "functional", "conditions": "not given", "units": {"MIC": "µg/mL"}, "values": [{"smiles": "COc1cc2nccc(CCC34CCC(NCc5ccc6c(n5)NC(=O)CO6)(CC3)CO4)c2nc1C#N", "MIC": 2}, {"smiles": "CN(C)c1nc2c(CCC34CCC(NCc5ccc6c(n5)NC(=O)CO6)(CC3)CO4)ccnc2cc1C(F)(F)F", "MIC": 8}]}, {"tested_on": "Escherichia coli", "assay": "Antimicrobial activity against Escherichia coli ATCC 25922 by micro broth dilution or agar based method", "format": "functional", "conditions": "Escherichia coli, ATCC 25922; read-out: MIC", "units": {"MIC": "µg/mL"}, "values": [{"smiles": "COc1cc2nccc(CCC34CCC(NCc5ccc6c(n5)NC(=O)CO6)(CC3)CO4)c2nc1C#N", "MIC": 32}, {"smiles": "COc1ccc2ncc(S(C)(=O)=O)c(CCC34CCC(NCc5ccc6c(n5)NC(=O)CO6)(CC3)CO4)c2n1", "MIC": 16}, {"smiles": "COc1ccc2ncc(C(F)F)c(CCC34CCC(NCc5ccc6c(n5)NC(=O)CO6)(CC3)CO4)c2n1", "MIC": 4}, {"smiles": "COc1ccc2ncc(CO)c(CCC34CCC(NCc5ccc6c(n5)NC(=O)CO6)(CC3)CO4)c2n1", "MIC": 16}, {"smiles": "CN(C)c1nc2c(CCC34CCC(NCc5ccc6c(n5)NC(=O)CO6)(CC3)CO4)ccnc2cc1C(F)(F)F", "MIC": 8}, {"smiles": "COc1ccc2ncc(C)c(CCC34CCC(NCc5ccc6c(n5)NC(=O)CO6)(CC3)CO4)c2n1", "MIC": 4}, {"smiles": "COc1ccc2ncc(C(F)(F)F)c(CCC34CCC(NCc5ccc6c(n5)NC(=O)CO6)(CC3)CO4)c2n1", "MIC": 4}, {"smiles": "COc1ccc2ncc(C(N)=O)c(CCC34CCC(NCc5ccc6c(n5)NC(=O)CO6)(CC3)CO4)c2n1", "MIC": 32}]}, {"tested_on": "Staphylococcus aureus", "assay": "Antimicrobial activity against Staphylococcus aureus Smith by micro broth dilution or agar based method", "format": "functional", "conditions": "Staphylococcus aureus, Smith; read-out: MIC", "units": {"MIC": "µg/mL"}, "values": [{"smiles": "COc1cc2nccc(CCC34CCC(NCc5ccc6c(n5)NC(=O)CO6)(CC3)CO4)c2nc1C#N", "MIC": 8}, {"smiles": "COc1ccc2ncc(S(C)(=O)=O)c(CCC34CCC(NCc5ccc6c(n5)NC(=O)CO6)(CC3)CO4)c2n1", "MIC": 0.25}, {"smiles": "COc1ccc2ncc(C(F)F)c(CCC34CCC(NCc5ccc6c(n5)NC(=O)CO6)(CC3)CO4)c2n1", "MIC": 0.03}, {"smiles": "COc1ccc2ncc(CO)c(CCC34CCC(NCc5ccc6c(n5)NC(=O)CO6)(CC3)CO4)c2n1", "MIC": 0.5}, {"smiles": "CN(C)c1nc2c(CCC34CCC(NCc5ccc6c(n5)NC(=O)CO6)(CC3)CO4)ccnc2cc1C(F)(F)F", "MIC": 8}, {"smiles": "COc1ccc2ncc(C)c(CCC34CCC(NCc5ccc6c(n5)NC(=O)CO6)(CC3)CO4)c2n1", "MIC": 0.06}, {"smiles": "COc1ccc2ncc(C(F)(F)F)c(CCC34CCC(NCc5ccc6c(n5)NC(=O)CO6)(CC3)CO4)c2n1", "MIC": 0.03}, {"smiles": "COc1ccc2ncc(C(N)=O)c(CCC34CCC(NCc5ccc6c(n5)NC(=O)CO6)(CC3)CO4)c2n1", "MIC": 4}]}, {"tested_on": "Enterococcus faecium", "assay": "Antimicrobial activity against VanA expressing vancomycin-resistant Enterococcus faecium by micro broth dilution or agar based method", "format": "functional", "conditions": "Enterococcus faecium; read-out: MIC", "units": {"MIC": "µg/mL"}, "values": [{"smiles": "COc1cc2nccc(CCC34CCC(NCc5ccc6c(n5)NC(=O)CO6)(CC3)CO4)c2nc1C#N", "MIC": 32}, {"smiles": "COc1ccc2ncc(S(C)(=O)=O)c(CCC34CCC(NCc5ccc6c(n5)NC(=O)CO6)(CC3)CO4)c2n1", "MIC": 4}, {"smiles": "COc1ccc2ncc(C(F)F)c(CCC34CCC(NCc5ccc6c(n5)NC(=O)CO6)(CC3)CO4)c2n1", "MIC": 1}, {"smiles": "COc1ccc2ncc(CO)c(CCC34CCC(NCc5ccc6c(n5)NC(=O)CO6)(CC3)CO4)c2n1", "MIC": 4}, {"smiles": "CN(C)c1nc2c(CCC34CCC(NCc5ccc6c(n5)NC(=O)CO6)(CC3)CO4)ccnc2cc1C(F)(F)F", "MIC": 8}, {"smiles": "COc1ccc2ncc(C)c(CCC34CCC(NCc5ccc6c(n5)NC(=O)CO6)(CC3)CO4)c2n1", "MIC": 1}, {"smiles": "COc1ccc2ncc(C(F)(F)F)c(CCC34CCC(NCc5ccc6c(n5)NC(=O)CO6)(CC3)CO4)c2n1", "MIC": 1}, {"smiles": "COc1ccc2ncc(C(N)=O)c(CCC34CCC(NCc5ccc6c(n5)NC(=O)CO6)(CC3)CO4)c2n1", "MIC": 16}]}]}
